Reference: patent US20260327233A1, “Heteroaryl Compounds as Ligand Directed Degraders of IRAK4” (Celgene Corporation, priority 2023, published 2026)

How the values were obtained:
[1] = molecular target: T1, IRAK4 (Homo sapiens, UniProt Q9NWZ3); experiment: IRAK4 PhosphoSens Biochemical Assay (BIOCHEM); settings: IRAK4 1 nM; ATP and Sox conjugated peptide substrate AQT0326; pH 7.5; room temperature; 240 minutes
T1 sequence (Q9NWZ3 1-460): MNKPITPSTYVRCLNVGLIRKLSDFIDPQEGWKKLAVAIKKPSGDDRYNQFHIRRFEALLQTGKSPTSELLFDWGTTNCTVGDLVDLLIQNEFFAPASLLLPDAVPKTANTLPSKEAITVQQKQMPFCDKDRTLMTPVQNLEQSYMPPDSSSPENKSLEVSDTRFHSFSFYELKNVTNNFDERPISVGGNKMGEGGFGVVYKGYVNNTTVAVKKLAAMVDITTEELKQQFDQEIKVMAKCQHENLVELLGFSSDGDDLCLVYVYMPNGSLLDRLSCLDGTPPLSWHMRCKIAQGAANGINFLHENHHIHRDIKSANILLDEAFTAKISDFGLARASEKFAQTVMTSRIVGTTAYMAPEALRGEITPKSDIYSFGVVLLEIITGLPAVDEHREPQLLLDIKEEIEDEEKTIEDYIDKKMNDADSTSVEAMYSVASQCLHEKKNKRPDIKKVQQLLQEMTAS
Experimental: The PhosphoSens® biochemical assay was performed as described by the vendor (AssayQuant Technologies Inc. Marlborough, MA). A 1.25× stock solution of IRAK4 (PV4002, ThermoFisher Scientific, Waltham, MA) and a 5× stock solution of ATP and Sox conjugated peptide substrate, AQT0326 (CSKS-AQT0326B, AssayQuant Technologies), were prepared in 1× kinase reaction buffer consisting of 50 mM HEPES, pH 7.5, 0.01% Brij-35, 0.5 mM EGTA, 20 mM MgCl2 and 1 mM DTT. 10 μL of the ATP and substrate solution mix, for a final concentration of 200 µM ATP and […] peptide substrate, was added to a Corning 3574 384-well, white, non-binding surface microtiter plate containing 0.5 μL of serially diluted test compounds prepared in DMSO. The reactions were started with the addition of 40 μL of the enzyme solution, for a final IRAK4 concentration of 1 nM, and monitored every 71 seconds for 240 minutes at λEX 360/λEM 485 in a BioTek Synergy H4 plate reader (Agilent Technologies, Santa Clara, CA) at room temperature. The initial linear portions of the progress curves were fit according to a linear equation to yield the slopes and converted to % inhibition based on a value of 100% activity for the no inhibitor treated control. IC50 values of each compound were obtained by fitting the % inhibition-compound concentration curves using Dotmatics software (Dotmatics, Bishops Stortford, Hertfordshire, England),

[2] = molecular target: T1, IRAK4; experiment: ALE THP1 HTRF (IRAK4 HTRF in THP1 cell lysate, Cisbio HTRF kit); format: cell-based; set-up: THP1 Homogeneous Time Resolved Fluorescence (ALE THP1 HTRF) Procedure; endogenous in cells; host or cells: THP1; settings: anti-IRAK4 d2 / anti-IRAK4 k antibodies
Experimental: Cell culture media was prepared in a tissue culture hood in a sterile environment by adding 10% FBS and 1% Penicillin Streptomycin to 500 mL no phenol red RPMI 1640 media. The media was filtered through a Nalgene Bottle Top Filter and stored at 4° C.
For Homogenous Time Resolved Fluorescence (HTRF) assays, a Cisbio HTRF kit was used, which included: Lysis Buffer #1 4×, Blocking Reagent #3 100×, 20× Antibody 1 (Anti-IRAK4 d2), 20× Antibody 2 (Anti-IRAK4 k), and Detection Buffer.
4× Lysis Buffer was stored at 4° C. For use as 1× Lysis buffer, the 4× solution was diluted with de-ionized water (distilled water, Gibco Cat. #15230279) and 100× Blocking Reagent in a 1:3:0.04 volume ratio.
20× Antibody Solution aliquots were stored at −80° C. and the Detection Buffer was stored at 4° C. For use as a 1× Antibody Solution, the 20× Antibody Solution aliquot was diluted with Detection Buffer in a 1:19 volume ratio.
Cells were lysed at room temperature for 45 min with shaking. A BCA protein assay was performed and normalization was conducted to the desired total protein concentration with 1× lysis buffer. Next, 1× Antibody Solutions were prepared by adding 380 μL Detection Buffer to 20 μL 20× Antibody Solution aliquots and mixing well. 1× Antibody Solutions were combined 1:1 and briefly vortexed. For control wells, 20 μL 1× anti IRAK4-k Antibody Solution was saved. The 384-well plate (ProxiPlate-384 Plus, Perkin Elmer Cat. #6008289) was loaded by adding 4 μL of the mixed Antibody Solution to empty wells using a single channel repeater. Using a multi-channel repeater, 16 μL lysate was added per well, and any bubbles that were formed were popped with 20 μL pipette tips and Kimwipe edges. In column 10, triplicates of each control were prepared. In wells A10, B10, and C10, buffer control was prepared by adding 16 μL Lysis Buffer and 4 μL Detection Buffer. In wells D10, E10, and F10, cryptate control was prepared by adding 16 μL Lysis Buffer, 2 μL Detection Buffer, and 2 μL 1× anti-IRAK4-k Antibody Solution. In wells G10, H10, and 110, a negative control was prepared by adding 16 μL Lysis Buffer and 4 μL mixed Antibody Solution. The plate was sealed with a clear seal and covered with an aluminum lid. The plate was spun down at 800 g for 5 min and incubated in the dark at room temperature overnight. The next day, the plate was spun down at 800 g for 5 min. The samples were analyzed by a plate reader (Envision, PerkinElmer) using the Desnor 384 HTRF program.

`N[C@@H]1C[C@@H](F)CN(c2ccn3ncc(C(=O)Nc4cn(C5CCN(CCN6CCN(c7ccc8c(c7)CN(C7CCC(=O)NC7=O)C8=O)CC6)CC5)nc4C(F)F)c3n2)C1` (stereo partly drawn) [Compound P-38, N-[3-(difluoromethyl)-1-[1-[2-[4-[2-(2,6-dioxo-3-piperidyl)-1-oxo-isoindolin-5-yl]piperazin-1-yl]ethyl]-4-piperidyl]pyrazol-4-yl]-5-[(3R,5R)-3-amino-5-fluoro-1-piperidyl]pyrazolo[1,5-a]pyrimidine-3-carboxamide] was tested, and the IC50 [1] was under 0.5 nM, the EC50 [2] was 6 nM and the “ALE THP1 HTRF YMIN” value ([2]; YMIN) was 10%.
